Experimental findings from US10294229B2, “Heteroaryl substituted aminopyridine compounds” (BRISTOL-MYERS SQUIBB COMPANY, priority 2015, dated 2019) are described below.

One assay deals with IRAK4 (Homo sapiens (Human), UniProt Q9NWZ3). Description: IRAK4 Inhibition Assay. Type of assay: biochemical. As to conditions: ATP 500 μM; IRAK4 0.6 nM. Put shortly: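 Mobility-shift readout: phosphorylated and unphosphorylated fluorescent peptide (1.5 μM) resolved by electrophoresis after a 60 min room-temperature reaction stopped with EDTA. Reaction holds 0.6 nM IRAK4, 500 μM ATP and 1.6% DMSO in HEPES pH 7.2/MgCl2/Brij 35/DTT buffer; percent inhibition set against vehicle and no-enzyme controls.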
IRAK4, sequence (Q9NWZ3 whole entry, species assumed): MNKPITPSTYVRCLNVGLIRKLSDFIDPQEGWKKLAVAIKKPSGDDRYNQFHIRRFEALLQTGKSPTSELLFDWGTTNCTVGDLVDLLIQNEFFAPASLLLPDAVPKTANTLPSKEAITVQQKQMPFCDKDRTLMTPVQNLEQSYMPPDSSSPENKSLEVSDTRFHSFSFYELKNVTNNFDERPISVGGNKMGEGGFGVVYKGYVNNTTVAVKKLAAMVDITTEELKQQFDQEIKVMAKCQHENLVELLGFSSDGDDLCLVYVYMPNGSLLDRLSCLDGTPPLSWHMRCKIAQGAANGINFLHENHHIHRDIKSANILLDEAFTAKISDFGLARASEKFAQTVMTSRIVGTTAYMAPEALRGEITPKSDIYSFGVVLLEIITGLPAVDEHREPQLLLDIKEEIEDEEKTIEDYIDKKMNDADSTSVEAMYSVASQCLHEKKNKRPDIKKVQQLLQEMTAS

For assay [1], the system named is Human whole blood stimulated with a TLR2 agonist (lipoteichoic acid), IL-6 levels. Description: IRAK4 Whole Blood Assay. Type of assay: cell-based. The note with it: lipoteichoic acid 10 μg/mL. An outline of the steps:
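ACD-A-anticoagulated human whole blood was preincubated with compounds for 60 min at 37 °C under 5% CO2. It was then stimulated with 10 μg/mL lipoteichoic acid (final) in RPMI for 5 h. IL-6 in plasma supernatants was measured by flow cytometry bead assay.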

As for `CC(=O)N1CCC(c2cn(-c3cnc(-n4ncc5cc(C#N)cnc54)cc3NC(C)C)nn2)CC1` [Example 335, 1-(5-(4-(1-acetylpiperidin-4-yl)-1H-1,2,3-triazol-1-yl)-4-(isopropylamino)pyridin-2-yl)-1H-pyrazolo[3,4-b]pyridine-5-carbonitrile], on IRAK4, the IC50 is 6 nM. In assay [1] (Homo sapiens), this compound yielded an EC50 of 630 nM.
In the same order, the values of `CC(C)Nc1cc(-n2ncc3cc(C#N)cnc32)ncc1-n1cc(C2CCC(N)CC2)nn1` (stereo not drawn) [Example 340, 1-(5-(4-((1s,4s)-4-aminocyclohexyl)-1H-1,2,3-triazol-1-yl)-4-(isopropylamino)pyridin-2-yl)-1H-pyrazolo[3,4-b]pyridine-5-carbonitrile] are 4 nM and 810 nM.
On to `CC(C)Nc1cc(-n2ncc3cc(C#N)cnc32)ncc1-n1cc(C2CCC(NC(=O)OC(C)(C)C)CC2)nn1` (stereo not drawn) [Example 342, tert-butyl ((1s,4s)-4-(1-(6-(5-cyano-1H-pyrazolo [3,4-b]pyridin-1-yl)-4-(isopropylamino)pyridin-3-yl)-1H-1,2,3-triazol-4-yl)cyclohexyl) carbamate], for which the IC50 at IRAK4 was found to be 2 nM. For the same compound, it took 1120 nM to reach a half-maximal effect in assay [1] (Homo sapiens) (EC50).
For `CC(C)Nc1cc(-n2ncc3cc(C#N)cnc32)ncc1-n1cc(C2CCC(NC(C)C)CC2)nn1` (stereo not drawn) [Example 343, 1-(4-(isopropylamino)-5-(4-((1 s,4s)-4-(isopropylamino)cyclohexyl)-1H-1,2,3-triazol-1-yl)pyridin-2-yl)-1H-pyrazolo[3,4-b]pyridine-5-carbonitrile], in that order: 3 nM and 520 nM.
For `COC(=O)NC1CCC(c2cn(-c3cnc(-n4ncc5cc(C#N)cnc54)cc3NC(C)C)nn2)CC1` (stereo not drawn) [Example 344, methyl ((1s,4s)-4-(1-(6-(5-cyano-1H-pyrazolo[3,4-b]pyridin-1-yl)-4-(isopropylamino)pyridin-3-yl)-1H-1,2,3-triazol-4-yl)cyclohexyl)carbamate], in that order: 3 nM and 650 nM.
For the compound `CCS(=O)(=O)N1CCC(c2cn(-c3cnc(-n4ncc5cc(C#N)cnc54)cc3NC(C)C)nn2)CC1` [Example 346, 1-(5-(4-(1-(ethylsulfonyl)piperidin-4-yl)-1H-1,2,3-triazol-1-yl)-4-(isopropylamino)pyridin-2-yl)-1H-pyrazolo[3,4-b]pyridine-5-carbonitrile], the IC50 on IRAK4 was found to be 6 nM. In assay [1] (Homo sapiens), this compound registered an EC50 of 460 nM.
For `COC(=O)NCCc1cn(-c2cnc(-n3ncc4cc(C#N)cnc43)cc2NC(C)C)nn1` [Example 352, methyl (2-(1-(6-(5-cyano-1H-pyrazolo[3,4-b]pyridin-1-yl)-4-(isopropylamino)pyridin-3-yl)-1H-1,2,3-triazol-4-yl)ethyl)carbamate], in that order: 20 nM and 460 nM.
As to `CC(F)Cc1cn(-c2cnc(-n3ncc4cc(C#N)cnc43)cc2NC2CC2)nn1` (stereo not drawn) [Example 353, 1-(4-(cyclopropylamino)-5-(4-(2-fluoropropyl)-1H-1,2,3-triazol-1-yl)pyridin-2-yl)-1H-pyrazolo[3,4-b]pyridine-5-carbonitrile], the IC50 on IRAK4 was found to be 11 nM. In addition, in assay [1], it took 430 nM to reach a half-maximal effect (EC50).
Consider `CC(C)(O)CCc1cn(-c2cnc(-n3ncc4cc(C#N)cnc43)cc2NCCC(F)(F)F)nn1` [Example 362, 1-(5-(4-(3-hydroxy-3-methylbutyl)-1H-1,2,3-triazol-1-yl)-4-((3,3,3-trifluoropropyl)amino)pyridin-2-yl)-1H-pyrazolo[3,4-b]pyridine-5-carbonitrile], for which the half-inhibitory concentration (IC50) on IRAK4 was 7 nM. Besides, the EC50 in assay [1] (Homo sapiens) worked out at 440 nM.
Take `CC(C)(O)CCc1cn(-c2cnc(-n3ncc4cc(C#N)cnc43)cc2NC2CCOC2)nn1` [Example 366, (S)-1-(5-(4-(3-hydroxy-3-methylbutyl)-1H-1,2,3-triazol-1-yl)-4-((tetrahydrofuran-3-yl)amino)pyridin-2-yl)-1H-pyrazolo[3,4-b]pyridine-5-carbonitrile]: the IC50 on IRAK4 turned out to be 9 nM. This compound also displayed an EC50 in assay [1] of 410 nM.
For `CC(C)Nc1cc(-n2ncc3cnc(N)nc32)ncc1-n1cc(CCC(C)(C)O)nn1` [Example 380, 4-(1-(6-(6-amino-1H-pyrazolo[3,4-d]pyrimidin-1-yl)-4-(isopropylamino)pyridin-3-yl)-1H-1,2,3-triazol-4-yl)-2-methylbutan-2-ol], in that order: 6 nM and 460 nM.
`CC(C)(O)CCc1cn(-c2cnc(-n3ncc4cc(C#N)cnc43)cc2NC(C)(C)CO)nn1` [Example 381, 1-(4-((1-hydroxy-2-methylpropan-2-yl)amino)-5-(4-(3-hydroxy-3-methylbutyl)-1H-1,2,3-triazol-1-yl)pyridin-2-yl)-1H-pyrazolo[3,4-b]pyridine-5-carbonitrile]: the IC50 at IRAK4 amounted to 2 nM. Besides, the EC50 in assay [1] (Homo sapiens) came out at 250 nM.
Take `CC(C)(O)CCc1cn(-c2cnc(-n3ncc4cc(C#N)cnc43)cc2NC2(C)CC2)nn1` [Example 383, 1-(5-(4-(3-hydroxy-3-methylbutyl)-1H-1,2,3-triazol-1-yl)-4-((1-methylcyclopropyl)amino)pyridin-2-yl)-1H-pyrazolo[3,4-b]pyridine-5-carbonitrile]: the IC50 at IRAK4 was 2 nM. This compound came in with an EC50 in assay [1] (Homo sapiens) of 370 nM.
Regarding `CC(C)Nc1cc(-n2ncc3cc(C#N)cnc32)ncc1-n1cc(CC[C@@](C)(O)CO)nn1` [Example 388, (R)-1-(5-(4-(3,4-dihydroxy-3-methylbutyl)-1H-1,2,3-triazol-1-yl)-4-(isopropylamino)pyridin-2-yl)-1H-pyrazolo[3,4-b]pyridine-5-carbonitrile], at IRAK4, the IC50 is 6 nM. The same compound displayed an EC50 in assay [1] (Homo sapiens) of 260 nM.
For `CC(C)Nc1cc(-n2ncc3cc(C#N)cnc32)ncc1-c1cc(C2CNC2)no1` [Example 397, 1-(5-(3-(azetidin-3-yl)isoxazol-5-yl)-4-(isopropylamino)pyridin-2-yl)-1H-pyrazolo[3,4-b]pyridine-5-carbonitrile], in that order: 5 nM and 460 nM.
`COC(=O)N1CCC[C@@H](c2cc(-c3cnc(-n4ncc5cc(C#N)cnc54)cc3NC(C)C)on2)C1` [Example 408, methyl (R)-3-(5-(6-(5-cyano-1H-pyrazolo[3,4-b]pyridin-1-yl)-4-(isopropylamino)pyridin-3-yl)isoxazol-3-yl)piperidine-1-carboxylate]: the IC50 at IRAK4 amounted to 2 nM. This compound yielded a concentration giving a half-maximal response (EC50) in assay [1] (Homo sapiens) of 490 nM.
For `CC(C)Nc1cc(-n2ncc3cc(C#N)cnc32)ncc1-c1cc(C2CCCOC2)no1` (stereo not drawn) [Example 416, 1-(4-(isopropylamino)-5-(3-(tetrahydro-2H-pyran-3-yl)isoxazol-5-yl)pyridin-2-yl)-1H-pyrazolo[3,4-b]pyridine-5-carbonitrile], in that order: 2 nM and 480 nM.
Consider `CC(C)Nc1cc(-n2ncc3cc(C#N)cnc32)ncc1-c1cc(C2CCOCC2)no1` [Example 418, 1-(4-(isopropylamino)-5-(3-(tetrahydro-2H-pyran-4-yl)isoxazol-5-yl)pyridin-2-yl)-1H-pyrazolo[3,4-b]pyridine-5-carbonitrile], for which the IC50 at IRAK4 is 3 nM. The EC50 in assay [1] (Homo sapiens) came out at 490 nM.
Regarding `CC(C)Nc1cc(-n2ncc3cc(C#N)cnc32)ncc1-c1cc(CCC(C)(C)O)no1` [Example 426, 1-(5-(3-(3-hydroxy-3-methylbutyl)isoxazol-5-yl)-4-(isopropylamino)pyridin-2-yl)-1H-pyrazolo[3,4-b]pyridine-5-carbonitrile], the IC50 on IRAK4 amounted to 1 nM. This compound also displayed an EC50 in assay [1] (Homo sapiens) of 340 nM.
As to `CC(C)Nc1cc(-n2ncc3cc(C#N)cnc32)ncc1-c1cc(CCC(C)(C)O)on1` [Example 429, 1-(5-(5-(3-hydroxy-3-methylbutyl)isoxazol-3-yl)-4-(isopropylamino)pyridin-2-yl)-1H-pyrazolo[3,4-b]pyridine-5-carbonitrile], the IC50 on IRAK4 came to 2 nM. The EC50 in assay [1] (Homo sapiens) worked out at 450 nM.
With `CC(C)Nc1cc(-n2ncc3cc(C#N)cnc32)ncc1-c1cc([C@@H]2CCCCN2S(C)(=O)=O)on1` [Example 432, (S)-1-(4-(isopropylamino)-5-(5-(1-(methylsulfonyl)piperidin-2-yl)isoxazol-3-yl)pyridin-2-yl)-1H-pyrazolo[3,4-b]pyridine-5-carbonitrile], the IC50 on IRAK4 was 1 nM. In assay [1] (Homo sapiens), this compound yielded an EC50 of 370 nM.
In the same order, the values of `CC(C)Nc1cc(-n2ncc3cc(C#N)cnc32)ncc1-c1nnc(N[C@H]2CC[C@H](N)CC2)o1` [Example 434, 1-(5-(5-(((1R,4R)-4-aminocyclohexyl)amino)-1,3,4-oxadiazol-2-yl)-4-(isopropylamino)pyridin-2-yl)-1H-pyrazolo[3,4-b]pyridine-5-carbonitrile] are 4 nM and 330 nM.
On to `CC(C)Nc1cc(-n2ncc3cc(C#N)cnc32)ncc1C1=NOC(CCC(C)(C)O)C1` (stereo not drawn) [Example 437, 1-(5-(5-(3-hydroxy-3-methylbutyl)-4,5-dihydroisoxazol-3-yl)-4-(isopropylamino)pyridin-2-yl)-1H-pyrazolo[3,4-b]pyridine-5-carbonitrile], for which the IC50 on IRAK4 stood at 2 nM. Besides, a half-maximal response in assay [1] (Homo sapiens) (EC50) required 210 nM.
In the same order, the values of `CC(C)(O)CCC1CC(c2cnc(-n3ncc4cc(C#N)cnc43)cc2NCC(F)F)=NO1` (stereo not drawn) [Example 442, 1-(4-((2,2-difluoroethyl)amino)-5-(5-(3-hydroxy-3-methylbutyl)-4,5-dihydroisoxazol-3-yl)pyridin-2-yl)-1H-pyrazolo[3,4-b]pyridine-5-carbonitrile] are 4 nM and 410 nM.
